This note sets out measurements from article PMC5078011, “The oleocanthal-based homovanillyl sinapate as a novel c-Met inhibitor” (Oncotarget, 2016).

Each structure is given as a SMILES string.

The target of the experiment is c-Met (M1250T) (Homo sapiens, UniProt P08581, M1250T). Nature of the experiment: Z'-LYTE Tyr6 peptide kinase assay, recombinant M1250T c-Met. The class given is biochemical. To be noted: read-out: (-)-Oleocanthal^a / IC50 (μM) ± SEM.
c-Met (M1250T), sequence (P08581 956-1390 M1250T limits assumed): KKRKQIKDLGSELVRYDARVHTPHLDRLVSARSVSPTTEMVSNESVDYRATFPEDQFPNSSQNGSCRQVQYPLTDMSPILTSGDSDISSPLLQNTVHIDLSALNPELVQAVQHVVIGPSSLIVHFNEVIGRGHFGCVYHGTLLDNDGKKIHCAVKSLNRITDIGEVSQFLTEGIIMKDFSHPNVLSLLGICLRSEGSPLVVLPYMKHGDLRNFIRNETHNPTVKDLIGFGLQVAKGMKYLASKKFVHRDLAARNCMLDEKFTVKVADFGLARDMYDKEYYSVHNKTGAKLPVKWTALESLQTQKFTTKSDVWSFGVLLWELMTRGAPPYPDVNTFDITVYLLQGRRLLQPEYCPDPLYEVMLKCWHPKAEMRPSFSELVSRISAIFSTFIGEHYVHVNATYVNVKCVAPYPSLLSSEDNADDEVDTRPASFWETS

For `C/C=C(/C=O)[C@@H](CC=O)CC(=O)OCCc1ccc(O)cc1` [S (−)-oleocanthal], the IC50 was determined as 3.9 µM.
